{
  "source": "patent US6596284B1",
  "about": "“Treating eczema with a combination of isotonic saline ocean® and nasal mast cell stabilizers” (priority 2002, dated 2003)",
  "test": "Topical application of cromolyn sodium in OCEAN at the affected site in twenty adult subjects with atopic eczema",
  "format": "in vivo, human",
  "settings": "300 mg/45 ml OCEAN (0.67%), applied every 4 to 6 hours at the affected site, after two weeks",
  "procedure": "A group of twenty adult subjects suffering from atopic eczema were asked to apply cromolyn sodium (at a concentration of 300 mg/45 ml OCEAN® giving a concentration of 0.67%) every 4 to 6 hours at the affected site, and instructed to rub the solution gently into the lesion.",
  "note": "Counter-ions that a name gives are not always drawn.",
  "data": [
    {"smiles": "O=C(O)c1cc(=O)c2c(OCC(O)COc3cccc4oc(C(=O)O)cc(=O)c34)cccc2o1", "note": "[cromolyn sodium, disodium salt of 1,3-bis-(2-carboxy-chromone-5″yloxy)2-hydroxy propane]", "values": [
      {"measurement": "subjects who experienced relief from the symptoms", "value": "19 of the 20"}
    ]}
  ]
}
